According to patent publication US20240228481A1, “NOVEL SULFONAMIDE SERIES OF QR2 INHIBITORS TO TACKLE OXIDATIVE STRESS AND COGNITIVE DECLINE” (CARMEL HAIFA UNIVERSITY ECONOMIC CORPORATION LTD., priority 2021, published 2024):

Tests used:
Type in all cases: biochemical
QR2 [1] = target: T1, QR2 (Homo sapiens, UniProt P16083); assay: QR2 enzymatic activity assay (menadione/BNAH), fluorescence readout; parameters: purchased Sigma-Aldrich
T1 sequence (P16083 1-231): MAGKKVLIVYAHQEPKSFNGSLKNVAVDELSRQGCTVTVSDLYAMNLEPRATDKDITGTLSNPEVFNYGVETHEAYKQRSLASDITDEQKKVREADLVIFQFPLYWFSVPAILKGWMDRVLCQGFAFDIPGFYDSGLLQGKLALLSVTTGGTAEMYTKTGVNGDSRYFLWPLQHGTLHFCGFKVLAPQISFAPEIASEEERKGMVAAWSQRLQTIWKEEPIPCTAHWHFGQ
Protocol: (§1) The enzymatic activity of QR2 (10 nM) was measured using menadione (both Sigma-Aldrich) as substrate and dihydrobenzylnicotamide (BNAH; Tocris) as co-substrate (Boutin et al., 2005). The reaction was performed in 50 mM Tris HCl, 150 mM NaCl 0.01% Tween-20 pH=8.5 (Sigma-Aldrich) at room temperature. Briefly, 3 μL of menadione alone (200 μM) or a mixture of menadione and QR2 (200 μM of menadione and 10 nM of QR2) were dispensed in 1536-well black Nunc plates (Thermo-Fisher) using a Multidrop™ Combi Reagent Dispenser (Thermo-Fisher) and pre-incubated with compounds for 10 min. BNAH (200 μM) was then added (3 μL) to the reaction using a BioNex Solutions BNX 1536 plate washer and the plates were incubated for another 10 min. […] The initial HTS was done with approximately 200,000 compounds at a single concentration of 5 μM. The chemical libraries used were Selleck Chemicals Bioactives, the Drug-like set from Enamine, HitFinder collection from Maybridge, Spectrum Collection from Microsource, Lopac from Sigma-Aldrich and the diversity sets from ChemDiv and ChemBridge. Initial “hit” compounds were defined as causing >30% reduction of enzyme activity. […] “Hit” compounds resulting from both the fluorescence and absorbance assay were tested in a dose-response, and median inhibition concentration (IC50) values were determined. In parallel, the same dose response was used in a selectivity assay where QR2 enzyme was replaced by QR1 (also known as—NQO1, 10 nM; Sigma-Aldrich).
(§2) In order to establish a varied, flexible and chemically amenable starting point from which to develop such inhibitors, the inventors ran a standardized QR2 assay (see methods) against ˜200,000 compounds, from a varied assortment of chemical libraries.

QR1 (NQO1) [2] = target: T2, QR1 (NQO1) (Homo sapiens, UniProt P15559); assay: Selectivity assay with QR1 in place of QR2, fluorescence readout
T2 construct: purchased Sigma-Aldrich
Protocol: (§3) The enzymatic activity of QR2 (10 nM) was measured using menadione (both Sigma-Aldrich) as substrate and dihydrobenzylnicotamide (BNAH; Tocris) as co-substrate (Boutin et al., 2005). The reaction was performed in 50 mM Tris HCl, 150 mM NaCl 0.01% Tween-20 pH=8.5 (Sigma-Aldrich) at room temperature. Briefly, 3 μL of menadione alone (200 μM) or a mixture of menadione and QR2 (200 μM of menadione and 10 nM of QR2) were dispensed in 1536-well black Nunc plates (Thermo-Fisher) using a Multidrop™ Combi Reagent Dispenser (Thermo-Fisher) and pre-incubated with compounds for 10 min. BNAH (200 μM) was then added (3 μL) to the reaction using a BioNex Solutions BNX 1536 plate washer and the plates were incubated for another 10 min. […] The initial HTS was done with approximately 200,000 compounds at a single concentration of 5 μM. The chemical libraries used were Selleck Chemicals Bioactives, the Drug-like set from Enamine, HitFinder collection from Maybridge, Spectrum Collection from Microsource, Lopac from Sigma-Aldrich and the diversity sets from ChemDiv and ChemBridge. Initial “hit” compounds were defined as causing >30% reduction of enzyme activity. Compounds suspected to be fluorescent were re-assayed in an absorbance assay at 350 nm using the same reaction but in a higher volume (100 μL), in a transparent plate (Greiner Bio-One). “Hit” compounds resulting from both the fluorescence and absorbance assay were tested in a dose-response, and median inhibition concentration (IC50) values were determined. In parallel, the same dose response was used in a selectivity assay where QR2 enzyme was replaced by QR1 (also known as—NQO1, 10 nM; Sigma-Aldrich).
(§4) In order to establish a varied, flexible and chemically amenable starting point from which to develop such inhibitors, the inventors ran a standardized QR2 assay (see methods) against ˜200,000 compounds, from a varied assortment of chemical libraries. […] Compounds that replicated the initial hit result were then assayed similarly, against NQO1, to evaluate compound specificity (FIG. 1B). From the HTS, a series of compounds containing a sulfonamide central linker, with an amine on one side and a heterocycle on the other, were identified and selected for SAR development (FIG. 1C).

QR1 (NQO1) [3] = target: T2, QR1 (NQO1); assay: Selectivity assay with QR1 in place of QR2, absorbance readout
Protocol: as §3, §4

QR2 [4] = target: T1, QR2; assay: QR2 enzymatic activity assay (menadione/BNAH), absorbance readout at 350 nm; parameters: purchased Sigma-Aldrich
Protocol: as §1, §2

T2 sequence (P15559 whole entry): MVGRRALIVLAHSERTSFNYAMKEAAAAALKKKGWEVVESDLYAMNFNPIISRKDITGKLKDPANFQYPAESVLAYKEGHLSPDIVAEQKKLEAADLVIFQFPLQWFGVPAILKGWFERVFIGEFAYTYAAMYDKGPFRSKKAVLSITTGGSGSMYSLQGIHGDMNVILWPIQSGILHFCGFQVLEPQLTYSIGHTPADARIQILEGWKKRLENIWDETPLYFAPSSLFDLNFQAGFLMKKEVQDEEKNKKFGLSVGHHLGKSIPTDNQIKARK

| IC50 (QR2 [1]) [µM] | IC50 (QR1 (NQO1) [2]) [µM] | IC50 (QR1 (NQO1) [3]) [µM] | IC50 (QR2 [4]) [µM] | Structure (SMILES) |
| --- | --- | --- | --- | --- |
| 7.04 | > 9.8 |  |  | Cc1c(C)c(C)c(S(=O)(=O)N2CCNC(=O)C2)c(C)c1C [PCM-0083647] |
| > 9.9 | > 9.9 | > 9.99 | > 9.99 | COCC1CN(S(=O)(=O)Cc2ccccc2)CC12CCNCC2 (centres unmarked) [PCM-0109036] |
| > 9.9 | 4.7 | 3.48 | > 9.99 | CC(=O)N1CCOc2ccc(S(=O)(=O)N3CCCc4ccccc43)cc21 [PCM-0119249] |
| 3.59 | 5.39 | > 9.99 | 8.98 | CCOC(=O)c1c(S(=O)(=O)N(CC)c2cccc(C)c2)c(C)n(C)c1C [PCM-0119438] |
| > 9.9 | > 9.9 | > 9.99 | > 9.99 | CCOC(=O)c1c(S(=O)(=O)N2CCN(Cc3ccccc3)CC2)c(C)n(C)c1C [PCM-0119478] |
| 8.21 | 3.79 | > 9.9 | 8.53 | CCOC(=O)c1c(S(=O)(=O)N(CCC(C)C)Cc2ccco2)c(C)n(C)c1C [PCM-0120203] |
| > 9.9 | > 9.9 | > 9.99 | > 9.99 | CCOC(=O)c1cc(-c2ccc(OC)c(S(=O)(=O)N3CCCc4ccccc43)c2)on1 [PCM-0120247] |
| > 9.9 | 4.6 | > 9.99 | 8.89 | CCCS(=O)(=O)Nc1ccc2c(c1)C(=O)Nc1cc(C)ccc1O2 [PCM-0120253] |
| 2.2 | > 9.99 | > 9.99 | 1.62 | Cc1ccc(-c2nnc(-c3ccccc3)o2)cc1S(=O)(=O)N(C)C [PCM-0127506] |
| 4.82 | > 9.9 | > 9.99 | 3.12 | CCN(CC)S(=O)(=O)c1cc(-c2nnc(-c3ccccc3)o2)ccc1C [PCM-0127546] |
| 2.06 | > 9.9 | > 9.99 | 3.83 | COc1ccc(S(=O)(=O)N2CCC(NC(=O)N3CCCC3)CC2)cc1 [PCM-0154188] |
| > 9.9 | > 9.9 | > 9.99 | > 9.99 | CNC(=O)N1CCc2cc(S(=O)(=O)N3CCc4ccccc43)ccc21 [PCM-0181527] |
| 5.62 | < 0.83 | < 0.75 | 4.03 | O=S(=O)(Nc1cccc(-c2cn3ccsc3n2)c1)c1ccc2c(c1)OCCO2 [PCM-0190999] |
| > 9.9 | > 9.9 | > 9.99 | > 9.99 | COc1ccc(O)cc1NC(=O)c1oc2ccc(S(=O)(=O)N3CCCC3)cc2c1C [PCM-0193675] |
| > 9.9 | > 9.9 | > 9.99 | > 9.99 | Cc1csc(-c2cc(S(=O)(=O)NC3CCCCC3)c(C)n2C)n1 [PCM-0195577] |

Further lines, the compound ahead of its results:

| Structure (SMILES) | IC50 (QR2 [1]) [µM] | IC50 (QR1 (NQO1) [2]) [µM] | IC50 (QR1 (NQO1) [3]) [µM] | IC50 (QR2 [4]) [µM] |
| --- | --- | --- | --- | --- |
| CN(C)S(=O)(=O)c1cccc2ccccc12 [PCM-0071569] | > 9.8 | > 9.8 |  |  |
| COCCNC(=O)N1CCN(S(=O)(=O)c2c(C)c(C)c(C)c(C)c2C)CC1 [PCM-0072788] | > 9.8 | > 9.8 |  |  |
| COc1cc(NS(C)(=O)=O)ccc1Cc1c2ccccc2nc2ccccc12 [PCM-0090313] | > 9.8 | > 9.8 |  |  |
| CS(=O)(=O)N(Cc1cccnc1)C1CN(C(=O)c2c[nH]c3ccccc23)C1 [PCM-0105406] | > 9.9 | > 9.9 | > 9.99 | 8.43 |
| CCCn1cc(C2CCN(S(=O)(=O)c3ccc(C(C)(C)C)cc3)CC2)c2cccnc21 [PCM-0105813] | > 9.9 | > 9.9 | > 9.99 | > 9.99 |
| CCCn1cc(C2=CCN(S(=O)(=O)Cc3ccccc3)CC2)c2cccnc21 [PCM-0105851] | > 9.9 | > 9.9 | > 9.99 | 9.05 |
| CCCS(=O)(=O)N1CCCc2cc(NC(=O)c3ccco3)ccc21 [PCM-0120563] | > 9.9 | > 9.9 | > 9.99 | > 9.99 |
| COc1ccc(OC)c(S(=O)(=O)Nc2cccc(-c3cn4c(C)csc4n3)c2)c1 [PCM-0121306] | 0.83 | 8.77 | > 9.99 | 2.03 |
| Cc1ccn2cc(-c3cccc(S(=O)(=O)N4CC(C)CC(C)C4)c3)nc2c1 (centres unmarked) [PCM-0124575] | 2.18 | > 9.9 | > 9.99 | 1.22 |
| Cc1ccc2nc(-c3cccc(S(=O)(=O)N4CCOCC4)c3)cn2c1 [PCM-0124615] | 3.25 | > 9.9 | > 9.99 | 1.65 |
| Cc1ccc2nc(-c3cccc(S(=O)(=O)N4CC(C)OC(C)C4)c3)cn2c1 (centres unmarked) [PCM-0124655] | 4.42 | > 9.9 | > 9.99 | 3.03 |
| CCCN(CCC)S(=O)(=O)c1cccc(-c2cn3cccc(C)c3n2)c1 [PCM-0124772] | 0.83 | > 9.9 | > 9.99 | 0.75 |
| Cc1ccc(-c2nnc(-c3ccccc3)o2)cc1S(=O)(=O)N1CCC(C)CC1 [PCM-0127586] | 5.97 | > 9.99 | > 9.99 | 1.2 |
| Cc1c(-c2nnc(C3CCC3)o2)c(S(=O)(=O)NCc2ccc(Cl)cc2)c(C)n1C [PCM-0128885] | > 9.9 | > 9.9 | > 9.99 | > 9.99 |
| COc1cc(Cl)c(NS(=O)(=O)c2ccc(-c3cc(C)no3)cc2OC)c(OC)c1 [PCM-0131156] | 3.82 | > 9.9 | > 9.99 | 2.73 |
| Cc1cc(-c2ccc(C)c(S(=O)(=O)NCC3CCN(Cc4ccco4)CC3)c2)on1 [PCM-0136246] | 3.98 | > 9.9 | > 9.99 | 2.56 |
| O=c1n(Cc2ccc(Cl)cc2)nc2ccc(S(=O)(=O)N3CCCCC3)cn12 [PCM-0140113] | > 9.9 | > 9.9 | > 9.99 | > 9.99 |
| N#Cc1nc(-c2ccc(S(=O)(=O)N3CCCC3)cc2)oc1NCCCN1CCOCC1 [PCM-0172736] | < 0.83 | < 0.83 | > 9.99 | > 9.99 |
| Cc1cc(-c2ccc(C)c(S(=O)(=O)Nc3ccc(Cl)cc3)c2)[nH]n1 [PCM-0186036] | 2.36 | > 9.99 | > 9.99 | 1.16 |
| CCOC(=O)C1CCN(S(=O)(=O)c2cc(-c3csc(C)n3)ccc2C)CC1 [PCM-0197024] | 4.16 | > 9.9 | > 9.99 | 3.2 |
| Cc1nc(-c2ccc(C)c(S(=O)(=O)N3CCN(C(=O)c4ccco4)CC3)c2)cs1 [PCM-0197066] | 4.65 | > 9.99 | > 9.99 | 1.28 |
| Cc1ccn2cc(-c3cccc(S(=O)(=O)N(C)C)c3)nc2c1 [PCM-0213801] |  | > 9.99 | > 9.99 |  |
| Cc1ccc(-c2cn3cccc(C)c3n2)cc1S(=O)(=O)N1CCN(C)CC1 [YB-540] | 0.425 | > 9.99 |  |  |
